Changes are numbered by the printed parent chain.
Tests used:
[1] = target: T1, GluD2-Lc(S544G)-(HS2)GluN1 (Rattus norvegicus, UniProt Q63226, A654T/A766F/D767R/N763E/R768S/S544G/T764L/V761T/V765F); assay: Two-electrode voltage clamp in Xenopus oocytes, inhibition of spontaneous currents; format: cell-based; conditions: fraction of spontaneous current inhibited by saturating D-serine
T1 construct: the function of full-length receptors as well, we introduced them into the GluD2 lurcher mutant (GluD2-Lc); expressed in transfected cells; host or cells: Xenopus laevis oocytes injected with cRNA
T1 sequence (Q63226 24-1007 S544G/A654T/V761T/N763E/T764L/V765F/A766F/D767R/R768S): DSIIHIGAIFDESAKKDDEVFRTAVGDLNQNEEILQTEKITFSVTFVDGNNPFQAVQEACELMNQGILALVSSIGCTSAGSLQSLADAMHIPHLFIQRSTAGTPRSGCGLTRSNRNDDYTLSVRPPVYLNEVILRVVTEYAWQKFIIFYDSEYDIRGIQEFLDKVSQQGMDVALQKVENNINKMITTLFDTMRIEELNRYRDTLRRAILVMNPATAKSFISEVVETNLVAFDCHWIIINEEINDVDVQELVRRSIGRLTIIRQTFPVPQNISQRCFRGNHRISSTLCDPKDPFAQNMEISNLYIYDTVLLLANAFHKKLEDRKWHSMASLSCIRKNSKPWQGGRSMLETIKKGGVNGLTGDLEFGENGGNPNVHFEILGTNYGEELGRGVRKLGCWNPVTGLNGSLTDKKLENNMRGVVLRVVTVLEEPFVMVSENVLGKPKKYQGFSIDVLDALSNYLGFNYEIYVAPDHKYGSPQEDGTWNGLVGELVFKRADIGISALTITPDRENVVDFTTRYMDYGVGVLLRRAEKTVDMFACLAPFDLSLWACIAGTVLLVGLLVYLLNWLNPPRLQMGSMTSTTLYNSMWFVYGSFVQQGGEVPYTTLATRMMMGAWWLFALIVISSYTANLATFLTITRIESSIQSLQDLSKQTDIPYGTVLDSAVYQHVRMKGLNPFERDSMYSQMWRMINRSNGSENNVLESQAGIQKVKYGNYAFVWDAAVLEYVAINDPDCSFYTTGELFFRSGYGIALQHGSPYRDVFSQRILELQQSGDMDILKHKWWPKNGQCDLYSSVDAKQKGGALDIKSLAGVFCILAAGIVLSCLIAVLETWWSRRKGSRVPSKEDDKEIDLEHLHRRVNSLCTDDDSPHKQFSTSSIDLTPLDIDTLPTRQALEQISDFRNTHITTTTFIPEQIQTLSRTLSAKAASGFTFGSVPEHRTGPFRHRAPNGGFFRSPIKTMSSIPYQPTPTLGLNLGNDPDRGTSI

GluD2-Lc(Y496F) = target: T2, GluD2-Lc(Y496F) (Rattus norvegicus, UniProt Q63226, A654T/Y496F); assay: as above; format: cell-based; conditions: fraction of spontaneous current inhibited by saturating D-serine
T2 construct: the function of full-length receptors as well, we introduced them into the GluD2 lurcher mutant (GluD2-Lc); expressed in transfected cells; host or cells: Xenopus laevis oocytes injected with cRNA
T2 sequence (Q63226 24-1007 Y496F/A654T): T1 sequence (Q63226 24-1007 S544G/A654T/V761T/N763E/T764L/V765F/A766F/D767R/R768S) with Y473F, G521S, T738V, E740N, L741T, F742V, F743A, R744D, S745R

N[C@H](CO)C(=O)O [D-serine]
D-serine efficacy Mean ± SEM [1]: 40.6 ± 0.5% | D-serine efficacy Mean ± SEM (GluD2-Lc(Y496F)): 43.5 ± 2.0%

Source: article PMC5384001 (Scientific Reports, 2017)
